Assay [1] deals with Canis familiaris. Briefly: Active dose for antiarrhythmic activity in Harris dog.(partial restoration of normal sinus rhythm up to 12 mg/kg when loss of muscle tone occurred); low activity. Further details: dose 12 mg/kg. Type of assay: functional, organism-based. The settings on record: Canis lupus familiaris.
Assay [2] addresses Muscarinic acetylcholine receptor (Rattus norvegicus) (UniProt P08482+P08483+P08485+P08911+P10980). Briefly: Percentage inhibition of field stimulated contraction guinea pig ileum (parasympatholytic activity)in presence of test compound (4 mg/L). It counts as functional, tissue-based. The conditions noted are these: Cavia porcellus, target entry is the homologue from another species.

The species named for assay [3] is Canis familiaris. Briefly: Active dose for antiarrhythmic activity in Harris dog. Type of assay: functional, Canis lupus familiaris, Heart.
Assay [4] has as its system Canis familiaris. Briefly: Active dose for antiarrhythmic activity in Harris dog; inactive to 30 mg/kg. Further details: dose 30 mg/kg. Type of assay: functional, organism-based. The settings on record: Canis lupus familiaris; Heart.
The subject of assay [5] is Canis familiaris. Briefly: Active dose for antiarrhythmic activity in Harris dog; inactive to 22 mg/kg. The conditions noted are these: Canis lupus familiaris; Heart. The arrangement: dose 22 mg/kg. Type of assay: functional, organism-based.
Assay [6] has as its system Canis familiaris. Briefly: Active dose for antiarrhythmic activity in Harris dog. (incomplete restoration of normal sinus rhythm up to 2 mg/kg when death occurred); low activity. Further details: dose 2 mg/kg. It counts as functional, organism-based. The settings on record: Canis lupus familiaris; Heart.
Assay [7] relates to Canis familiaris. Briefly: Active dose for antiarrhythmic activity in Harris dog. (incomplete or no effect to restore sinus rhythm up to 30 mg/kg); low activity. It counts as functional, organism-based. The arrangement: dose 30 mg/kg. The conditions noted are these: Canis lupus familiaris; Heart.
For assay [8], the system named is Canis familiaris. The experiment in a line: Active dose for antiarrhythmic activity in Harris dog.(partial restoration of normal sinus rhythm up to 9 mg/kg when death occurred); low activity. Type of assay: functional, organism-based. The conditions noted are these: Canis lupus familiaris; Heart. Further details: dose 9 mg/kg.

Molecules are shown by their SMILES. Calls of active or inactive are those of the source. The calls are words filed in the database; no cut-off is given here.

Consider `Oc1c(CN2CCCC2)cc(Nc2ccnc3cc(Cl)ccc23)cc1CN1CCCC1`, for which the DOSE entry in assay [1] is “Partially active”. Also, the inhibition (as a rule, the change of the read-out against control, counted positive when it falls) in assay [2] turned out to be 27%. In assay [3], `Oc1c(CN2CCCC2)cc(CNc2nnc(Cl)c3ccccc23)cc1CN1CCCC1` returned a Dose of 4.5 mg/kg. Besides, the inhibition in assay [2] was 78%.

As to `Nc1cc(CN2CCCC2)c(O)c(CN2CCCC2)c1`, the DOSE entry in assay [4] is “inactive”. In assay [2], the inhibition was determined as 3%. `Oc1c(CN2CCCC2)cc(Nc2ccnc3cc(C(F)(F)F)ccc23)cc1CN1CCCC1`: the Dose in assay [3] came out at 3 mg/kg. The inhibition in assay [2] amounted to 36%. On to `Oc1ccc(Nc2nnc(Cl)c3ccccc23)cc1CN1CCCC1`, for which the Dose in assay [3] came out at 17 mg/kg. The inhibition in assay [2] turned out to be 65%. Take `Cc1cc(Nc2cc(CN3CCCC3)c(O)c(CN3CCCC3)c2)c2ccccc2n1`: in assay [3], the Dose was found to be 11 mg/kg.

In turn, `Oc1c(CN2CCCC2)cc(Nc2ccc3ccccc3n2)cc1CN1CCCC1` showed a Dose in assay [3] of 6 mg/kg. The inhibition in assay [2] was 50%. Consider `Oc1c(CN2CCCC2)ccc(Nc2ncnc3ccccc23)c1CN1CCCC1`, for which, in assay [5], the DOSE result is “inactive”. For the same compound, in assay [2], the inhibition stood at 21%. Consider `Oc1ccc(Nc2ncnc3ccccc23)cc1`, for which the DOSE entry in assay [4] was “inactive”. Moreover, in assay [2], the inhibition turned out to be 13%. `Oc1c(CN2CCCC2)cc(Nc2nccc3ccccc23)cc1CN1CCCC1` gave a Dose in assay [3] of 1.1 mg/kg. Further, the inhibition in assay [2] came to 48%. Compound `Oc1c(CN2CCCC2)cc(Nc2ccncc2)cc1CN1CCCC1` gave a Dose in assay [3] of 8.5 mg/kg. Also, the inhibition in assay [2] was 5%. In the case of `Oc1c(CN2CCCC2)cc(Nc2ncccn2)cc1CN1CCCC1`, the DOSE entry in assay [1] is “Partially active”. Further, in assay [2], the inhibition worked out at 6%.

`CN(C)Cc1cc(Nc2nncc3ccccc23)cc(CN(C)C)c1O` showed a Dose in assay [3] of 14 mg/kg. In assay [2], the inhibition amounted to 14%. With `COc1nnc(Nc2cc(CN3CCCC3)c(O)c(CN3CCCC3)c2)c2ccccc12`, the DOSE result in assay [6] was “Partially active”. The inhibition in assay [2] was 84%. For the compound `Oc1c(CN2CCCC2)cc(Nc2ncnc3ccccc23)cc1CN1CCCC1` [CHANGROLIN], the Dose in assay [3] stood at 10.3 mg/kg. Further, the inhibition in assay [2] worked out at 43%. Regarding `COc1cc2c(Nc3cc(CN4CCCC4)c(O)c(CN4CCCC4)c3)ncnc2c(OC)c1OC`, the DOSE entry in assay [7] was “Partially active”. Also, the inhibition in assay [2] was 14%. Consider `CC(=O)Nc1cc(CN2CCCC2)c(O)c(CN2CCCC2)c1`, for which the DOSE result in assay [4] was “inactive”.

Turning to `Oc1ccc(Nc2nncc3ccccc23)cc1`, the DOSE result in assay [4] is “inactive”. Further, the inhibition in assay [2] came out at 23%. Regarding `Oc1c(CN2CCCC2)cc(Nc2nnc(Cl)c3ccccc23)cc1CN1CCCC1`, the Dose in assay [3] came to 2.5 mg/kg. The inhibition in assay [2] is 76%.

Regarding `Oc1ccccc1Nc1ncnc2ccccc12`, in assay [4], the DOSE result is “inactive”. Further, in assay [2], the inhibition was found to be 48%. On to `Oc1c(CN2CCCC2)cc(Nc2ccnc3ccccc23)cc1CN1CCCC1`, for which the DOSE entry in assay [8] was “Partially active”. Also, in assay [2], the inhibition was 19%.

In assay [3], `Oc1ccc(Nc2ccc3ccccc3n2)cc1CN1CCCC1` registered a Dose of 11 mg/kg. Further, the inhibition in assay [2] worked out at 72%. In assay [3], `Oc1c(CN2CCCC2)cc(Nc2ccc(Cl)nn2)cc1CN1CCCC1` displayed a Dose of 10.5 mg/kg. Further, in assay [2], the inhibition was 40%. Take `Clc1nnc(Nc2cc(CN3CCCC3)cc(CN3CCCC3)c2)c2ccccc12`: the Dose in assay [3] stood at 3 mg/kg. In addition, the inhibition in assay [2] is 93%.

Compound `Oc1c(CN2CCCC2)cc(Nc2nncc3ccccc23)cc1CN1CCCC1` yielded a Dose in assay [3] of 1.5 mg/kg. For the same compound, the inhibition in assay [2] is 83%.
